Assay results as given in patent publication US20110060029A1, “METHOD OF TREATING CANCER BY MODULATING EPAC” (priority 2009, published 2011).
“Also recorded” adds a separate entry of the source.

Tests used:
[1] = test system: HEMA-LP human melanocytes; assay: Migration assay (Boyden chambers) in HEMA-LP melanocytes; type: cell-based; conditions: HEMA-LP melanocyte; 50 μM agonist; FIG. 1A
Description: (§1) Cell Culture—SK-Mel-2 and SK-Mel-24 (ATCC) cell lines were cultured in Eagle's Minimum Essential Medium supplemented with 10% fetal bovine serum at 37° C./5% CO2. HEMA-LP human melanocytes (Cascade Biologics) were maintained in Medium 254 with Human Melanocyte Growth Supplement (Cascade Biologics).
Adenoviral Overexpression—Recombinant adenoviruses containing human LacZ, Epac1 or Epac2 were constructed (Adeno-X Expression System, Clontech). Human Epac1 and Epac2 cDNA were kindly provided by Dr. J. L Bos (University Medical Center, Utrecht, Netherlands). Adenovirus of PKA alpha subunit was purchased from Vector Biolabs. The corresponding encoding sequence was cloned in topShuttle2 (Clontech) to obtain a mammalian expression cassette, which was then excised and ligated into BD Adeno-X Viral DNA. The recombinant vector was introduced into human embryonic kidney cells (HEK293) to recover infectious adenovirus. Viruses were propagated in HEK293 cells, and purified by BD Adeno-X Virus Purification Kits. Viral titer was determined by Adeno-X Rapid Titer Kit (Clontech). […]
Migration assay—Migration assay was performed using methods previously known in the art using the Boyden chambers (pore size 8 μm, BD Biosciences). […] After mechanical removing of the cells on the upper surface of the membrane with a cotton swab, cells that migrated onto the lower surface of the membrane were counted. […]

SK-Mel-2 = assay: Migration assay (Boyden chambers) in SK-Mel-2; type: cell-based, human; conditions: for cell migration: 50 μM agonist
Description: as §1
(§2) Adenoviral Overexpression—Recombinant adenoviruses containing human LacZ, Epac1 or Epac2 were constructed (Adeno-X Expression System, Clontech). Human Epac1 and Epac2 cDNA were kindly provided by Dr. J. L Bos (University Medical Center, Utrecht, Netherlands). Adenovirus of PKA alpha subunit was purchased from Vector Biolabs. The corresponding encoding sequence was cloned in topShuttle2 (Clontech) to obtain a mammalian expression cassette, which was then excised and ligated into BD Adeno-X Viral DNA. The recombinant vector was introduced into human embryonic kidney cells (HEK293) to recover infectious adenovirus. Viruses were propagated in HEK293 cells, and purified by BD Adeno-X Virus Purification Kits. Viral titer was determined by Adeno-X Rapid Titer Kit (Clontech). As a control study, adenovirus vector harboring LacZ was used at the same MOI. Cells were infected with adenovirus for 24 hand subjected to each experiment. In some experiments (For HS production and NDST-1 expression, FIGS. 5B, 5C, 5D, 5E, 5F and 5G), cells were further incubated for 48 h in medium without adenovirus followed by each experiment.
(§3) Migration assay—Migration assay was performed using methods previously known in the art using the Boyden chambers (pore size 8 μm, BD Biosciences). The upper chamber's polycarbonate insert film parts were coated by 75 μl fibronectin (50 μg/ml in PBS, Biosciences). Cultured cells were detached and the number of the cells was adjusted to 1×10^3 cells/μl of media. One-hundred micro liter of the cell suspension was applied to the center of the upper chamber and then attached to the lower chamber. Thereafter, the cells were incubated in CO2 incubator at 37° C. for 3 h unless specified. After fixation with 10% formalin neutral solution, cells were stained with Diff-Quick kit (Dade Behring). After mechanical removing of the cells on the upper surface of the membrane with a cotton swab, cells that migrated onto the lower surface of the membrane were counted. Pictures were taken with a microscope followed by counting migrated cells with Image J software in randomly chosen 10 fields.
Transfection of siRNA—Epac1 siRNA (Ambion), syndecan-2 siRNA (Ambion) and NDST-1 siRNA (QIAGEN) were transfected into subconfluent SK-Mel-2 cells using Lipofectamine 2000 (Invitrogen). For Epac1, a pool of double-stranded siRNAs containing equal parts of the following antisense sequence was used: 5′-AUCACUGUAUACCGGUUCC-3′ (SEQ ID NO: 1). For syndecan-2, a pool of double-stranded siRNAs containing equal parts of the following antisense sequence was used: 5′-CUCUGGACUCUCUACAUCC-3′ (SEQ ID NO: 2). For NDST-1, a pool of double-stranded siRNAs containing equal parts of the following antisense sequence was used: 5′-UUUAUUAGCAGUUAGUUCG-3′ (SEQ ID NO: 3). The corresponding non-targeting siRNA Silencer negative Control #2 siRNA (AM4613, Ambion) was used as a negative control. Twenty-four hours later, the medium containing siRNA was changed to fresh medium and incubated for 72 h. When siRNA transfection was combined with adenoviral infection, siRNA transfection followed the adenoviral infection.

SK-Mel-24 = assay: Migration assay (Boyden chambers) in SK-Mel-24; type: cell-based, human; conditions: FIG. 1A; for cell migration: 50 μM agonist
Description: as §1, §2
as §3, with “Thereafter, the cells were incubated in CO2 incubator at 37° C. for 3 h unless specified. After fixation with 10% formalin neutral solution, cells were stained with Diff-Quick kit (Dade Behring).” left out, “Pictures were taken with a microscope followed by counting migrated cells with Image J software in randomly chosen 10 fields.” left out

[2] = test system: Cloudman S91 melanoma cell line; assay: Migration assay in Cloudman S91 melanoma cells; type: cell-based, mouse; conditions: 50 μM 8-pMeOPT, FIG. 6B
Description: as §3
Lung colonization assay—To examine the metastatic potential of melanoma cells, lung colonization assay was performed using methods known in the art. […] Two weeks after the injection, the number of metastatic colonies on the surface of the lungs were counted under a dissection microscope. […]

[3] = test system: syndecan-2 colocalization with lipid rafts; assay: Immunocytochemical staining of syndecan-2 and lipid rafts in SK-Mel-2; type: cell-based, human; conditions: for colocalization of syndecan-2 with lipid rafts: SK-Mel-2, 50 μM 8-pMeOPT for 15 min; for Epac1-induced syndecan-2 colocalization with lipid rafts: SK-Mel-2 overexpressing Epac1, NCD 10 μM for 3 h, FIG. 3D
Description: (§4) Immunocytochemistry—Immunocytochemistry was performed using methods previously known in the art. SK-Mel-2 on glass coverslips were fixed, washed and permeabilized with 0.02% Triton-X followed by incubation with primary and secondary antibodies for 30 min at room temperature. Alexa Fluor 488- and 594-conjugated goat anti-rabbit or anti-mouse antibodies (Molecular Probes) were used. The pictures were taken with a digital camera operated on a Nikon Eclipse TE200 or a confocal microscope (Zeiss Axiovert 100M). For mounting media, Prolong-Gold antifade with DAPI (Molecular Probes) was used.

tubulin = assay: Immunocytochemical staining with tubulin in SK-Mel-2; type: cell-based, human; conditions: SK-Mel-2 overexpressing Epac1; NCD 10 μM for 3 h; FIG. 3C
Description: as §4

[4] = test system: syndecan-2 in lipid rafts-rich fraction; assay: Immunoblot for syndecan-2 in lipid rafts-rich fraction (sucrose density gradient) of SK-Mel-2; type: cell-based, human; conditions: SK-Mel-2 overexpressing Epac1; 10 μM NCD for 3 h; FIG. 3E
Description: Western Blotting—Western blot analysis was performed using methods previously known in the art. Cells were lysed and sonicated in lysis buffer containing 25 mM Tris-HCl (pH7.5), 150 mM NaCl, 5 mM MgCl2, 1% NP-40, 1 mM DTT, 5% glycerol, phosphatase inhibitor (Sigma), protease inhibitor cocktail (Sigma) and 1 mM NaF. Equal amounts of protein (20 μg) were subjected to SDS-PAGE. After protein separation by electrophoresis, samples were transferred to Millipore Immobilon-P membrane and immunoblotting with antibodies was performed. Signal intensities of the bands were quantified with Image J software (NIH). Sucrose density gradient centrifugation—Lipid rafts-enriched membrane fractions were prepared using methods previously known in the art. Briefly, SK-Mel-2 cells were homogenated in 2 ml of 500 mM sodium carbonate (pH 11.0) with protease inhibitors (1 μg/ml leupeptin, 0.1 mM PMSF and 50 U/ml egg white trypsin inhibitor) and lysed by sonication. The lysate was then adjusted to 45% sucrose by mixing with 2 ml of 90% sucrose prepared in MBS buffer (25 mM 2-Morpholinoethanesulfonic acid (MES), pH 6.5, […]) and placed at the bottom of 5% and 35% discontinuous sucrose gradient (in MBS buffer containing 100 mM sodium carbonate) for an overnight ultra-centrifugation (260,000 g). Fractions were removed sequentially from the top and designated as fractions 1 through 13. […]

CCCC(=O)Nc1ncnc2c1ncn2[C@@H]1O[C@@H]2COP(=O)(O)O[C@H]2[C@H]1O [6-MB-cAMP, N6-Monobutyryladenosine-3′,5′-cyclic monophosphate]
cell migration [1]: did not increase cell migration | cell migration (SK-Mel-2; SK-Mel-2, FIG. 1A): did not increase cell migration; also recorded: neither 6-MB-cAMP nor PKA overexpression, increased melanoma cell migration | cell migration (SK-Mel-24): did not increase cell migration; also recorded: neither 6-MB-cAMP nor PKA overexpression, increased melanoma cell migration

COc1ccc(Sc2nc3c(N)ncnc3n2[C@@H]2O[C@@H]3COP(=O)(O)O[C@H]3[C@H]2OC)cc1 [8-pMeOPT, 8-pMeOPT-2-O-Me-cAMP]
cell migration [1]: not in a melanocyte cell line | cell migration, combination with overexpression of Epacs over Epac overexpression alone (SK-Mel-2; SK-Mel-2, 50 μM 8-pMeOPT, FIG. 1A): further increased cell migration | cell migration (SK-Mel-2; SK-Mel-2, FIG. 1A): increased melanoma cell migration | cell migration, combination with overexpression of Epacs over Epac overexpression alone (SK-Mel-24; 50 μM 8-pMeOPT): such increase was not observed | cell migration (SK-Mel-24): increased melanoma cell migration | migration [2]: increased migration | colocalization of syndecan-2 with lipid rafts ([3]; FIG. 2A): increased colocalization of syndecan-2 with lipid rafts | colocalization of syndecan-2 with lipid rafts ([3]; FIG. 2A, listed as Epac agonist): increased co-localization of syndecan-2 with lipid rafts

COC(=O)Nc1nc2ccc(C(=O)c3cccs3)cc2[nH]1 [NCD, Nocodazole]
Epac1-induced fine tubulin network formation (tubulin): network formation was inhibited | Epac1-induced migration (SK-Mel-2; SK-Mel-2 overexpressing Epac1, NCD 10 μM, FIG. 3F): inhibited Epac-induced migration; also recorded: inhibited Epac1-induced migration | syndecan-2 expression in lipid raft-rich fraction [4]: decreased expression of sydecan-2 in the lipid rafts-rich fraction; also recorded: decreased syndecan-2 expression in lipid raft-rich fraction | Epac1-induced syndecan-2 colocalization with lipid rafts [3]: decreased Epac1-induced syndecan-2 colocalization with lipid rafts | Epac1-induced syndecan-2 colocalization with lipid rafts ([3]; listed as Nocodazole): decreased the colocalization of syndecan-2 with lipid rafts

[Na+].[O-][Cl+2]([O-])[O-] [sodium chlorate]
Epac-induced migration (SK-Mel-2; sodium chlorate, data not shown): decreased Epac-induced migration

cyclodextrin [CXD]
Epac1 overexpression-induced migration (SK-Mel-2; SK-Mel-2 overexpressing Epac1, 10 μg/ml CXD, FIG. 2C): inhibited; also recorded: decreased Epac1 overexpression-induced migration | basal migration (SK-Mel-2; SK-Mel-2 overexpressing LacZ, 10 μg/ml CXD, assay 8 h, FIG. 2C): inhibited | Epac1-overexpression-induced colocalization of syndecan-2 with lipid rafts ([3]; SK-Mel-2 with Epac1 adenovirus, 10 μg/ml CXD, FIG. 2A): decreased Epac-induced syndecan-2 colocalization with lipid-rafts; also recorded: decreased Epac1-overexpression-induced colocalization of syndecan-2 with lipid rafts
